Experimental data: EP1709956A1, “Hair treatment composition comprising betains” (Henkel Kommanditgesellschaft auf Aktien, priority 2001, dated 2002)

System: humane Haarfollikel
Experiment: in vitro model of isolated human scalp hair follicles (Philpott): hair shaft elongation in organ culture
Assay type: cell-based
Settings: 9 days in culture
Text: Auf diese Publikation wird ausdrücklich Bezug genommen. Gemäß dieser Veröffentlichung wurde wie folgt verfahren: a. Isolation humaner Kopfhauthaarfollikel Es wird okzipitale, humane Vollhaut isoliert. b. Aufreinigung der isolierten humanen Kopfhautfollikel Die herausgezupften Haarfollikel werden in ein frisches Isolationsmedium überführt, darin gesammelt und anschließend mehrfach unter sterilen Bedingungen mit frischem Medium gewaschen. Je drei Haarfollikel werden randomisiert in ein Well einer 24-Well Platte mit 500µl kompletten Mediums (verwendet wird Williams E Medium, supplementiert mit 2 mM L-Glutamin, 10 µg/ml Hydrokortison, 10 µg/ml Insulin, 10 µg/ml Penizillin und 10 µg/ml Streptomycin). Vor der Zugabe der zu testenden Substanzen wurden die Haarfollikel für 30 Minuten im Inkubator präinkubiert. c. Testung der Substanzen Es werden Carnitin, Carnitintartrat sowie Minoxidil als Vergleichssubstanz mit bekannter Wirkung geprüft. Die Prüfkonzentration für Carnitin und Carnitiontartrat beträgt jeweils 50 µmol/1. Die Haarfollikel werden für 9 Tage in Kultur gehalten. Das Medium inklusive der Testsubstanzen wird täglich gewechselt. Die Länge der jeweiligen Haarschäfte wird am 9. Tag mit Hilfe eines Meßokulares am Dissektionsmikroskop gemessen und dokumentiert. Die Prüfung von Minoxidil ist eine Positivkontrolle, weil Minoxidil in der Literatur bereits als wachstumsstimulierend für humane Haarfollikel beschrieben wird. […] Hierzu sind folgende Änderungen gegenüber der Prüfung des Carnitines und des Carnitintartrates notwendig: Testkonzentration des Minoxidil 10^-5 mol/l in 1 % Ethanol, Ersatz des Streptomycines durch 10µg/ml Ciprofloxacin. Zur statistischen Auswertung der Ergebnisse wird die Länge der Haarschäfte in % der Gesamtdurchschnittslänge aller Haarfollikel am Tage 0 berechnet. Alle Haarfollikel einer Gruppe werden gepoolt und der Mittelwert sowie die Standardabweichung statistisch nach üblichen Methoden berechnet. Signifikante Unterschiede werden mit dem Student T-Test berechnet. d.

[1] = 50 µmol/l, medium changed daily, shaft length measured on day 9, in % of mean length of all follicles on day 0

SMILES	Längenwachstum des Haarschaftes in % [1]	Längenwachstum des Haarschaftes in % (positive control, 10^-5 mol/l in 1 % Ethanol, streptomycin replaced by 10 µg/ml Ciprofloxacin, measured on day 9)
C[N+](C)(C)CC(O)CC(=O)[O-] (stereo not drawn) [Carnitin]	67%	–
C[N+](C)(C)CC(O)CC(=O)[O-] (stereo not drawn) [Carnitintartrat]	87%	–
Nc1cc(N2CCCCC2)nc(N)[n+]1[O-] [Minoxidil, reference compound]	–	34%
